Key:
[1] = test system: P. aeruginosa strains from cystic fibrosis patients; experiment: Macrobroth dilution MICs against two P. aeruginosa strains; type: cell-based, Pseudomonas aeruginosa
[2] = test system: B. cepacia strains BCEP 953, BCEP 954; experiment: Time-kill macrobroth MICs, B. cepacia strains BCEP 953 and BCEP 954; type: cell-based, Burkholderia cepacia
Procedure: (§1) Susceptibility testing. Original MICs of each strain to CEM-102 and other comparators was tested by CLSI microdilution methodology. Trays were obtained from Trek, Inc., Cleveland, Ohio. Time-kill macrobroth MIC dilution by CLSI was performed for all synergy testing.
(§2) Synergy testing. Two of the MRSA strains were chosen and tested for synergy, together with the four Gram-negative strains mentioned above. Broth macrodilution formed the basis of MICs used in time-kill experiments, as detailed below. The kill kinetics of each drug was tested alone by incubating an initial inoculum of 5×10^5 to 5×10^6 cfu/ml with drug concentrations at the MIC, three dilutions above and three dilutions below the MIC (1/2, 1/4 and 1/8×MIC). Viability counts were performed after 0, 3, 6, 12 and 24 h incubation at 37° C. in a shaking water bath by plating onto trypticase soy-5% sheep blood agar plates.

[3] = test system: MRSA strains SA 2230, SA 2232; experiment: Time-kill macrobroth MICs, MRSA strains SA 2230 and SA 2232; type: cell-based, Staphylococcus aureus
Procedure: as §1, §2

[4] = test system: P. aeruginosa strains PSAR 461, PSAR 468; experiment: Time-kill macrobroth MICs, P. aeruginosa strains PSAR 461 and PSAR 468; type: cell-based, Pseudomonas aeruginosa; conditions: strain PSAR 468
Procedure: as §1, §2

[5] = test system: B. cepacia strains from cystic fibrosis patients; experiment: Macrobroth dilution MICs against two B. cepacia strains; type: cell-based, Burkholderia cepacia
[6] = test system: MRSA strains from cystic fibrosis patients; experiment: CLSI microdilution MICs against 40 MRSA strains; type: cell-based, Staphylococcus aureus; design: MICs (range): unit not given beside the values
Procedure: Strains. Two strains each of mucoid Pseudomonas aeruginosa (both pyocyanin positive) and 40 MRSA (only one strain with gold colonies), isolated within the past 12 months and beyond from patients at in cystic fibrosis clinic, were tested. Additionally, two B. cepacia strains were acquired from Hershey Medical Center. All strains were identified by standard methods. Only one strain per patient was tested. MLVA was done on all strains, to examine clonality and to ensure that testing was not being limited to only one or a few clones. Strains were stored in skim milk at −70° C. until use.
as §1
MICs were assayed by standard methodology.

[7] = blood; cited from earlier work
[8] = Staphylococcus aureus, microdilution, 40 MRSA strains

## NCC[C@H](O)C(=O)N[C@@H]1C[C@H](N)[C@@H](O[C@H]2O[C@H](CN)[C@@H](O)[C@H](O)[C@H]2O)[C@H](O)[C@H]1O[C@H]1O[C@H](CO)[C@@H](O)[C@H](N)[C@H]1O [Amikacin]
[1]
  MIC Range: 2 to 8 µg/mL

## CC(=O)O[C@H]1C[C@@]2(C)[C@@H](C[C@@H](O)[C@H]3[C@@]4(C)CC[C@@H](O)[C@@H](C)[C@@H]4CC[C@@]32C)/C1=C(\CCC=C(C)C)C(=O)[O-].[Na+] [CEM-102, Sodium fusidate]
[2]; strain BCEP 953
  Time-kill macrobroth MIC: 512 µg/mL
[2]; strain BCEP 954
  Time-kill macrobroth MIC: 512 µg/mL
[3]; strain SA 2230
  Time-kill macrobroth MIC: 0.5 µg/mL
[3]; strain SA 2232
  Time-kill macrobroth MIC: 0.25 µg/mL
[4]
  Time-kill macrobroth MIC: 256 µg/mL
[5]
  MIC Range: >64 µg/mL
[1]
  MIC Range: >64 µg/mL
[6]; [8]
  MIC50: 0.12 µg/mL
  MIC90: 0.25 µg/mL
[6]; all strains of MRSA tested
  Potency in words: very potent
[6]; microdilution, 40 MRSA strains
  MIC Range: 0.12 to 0.5 µg/mL

## CCCCCCCCCC(=O)N[C@@H](Cc1c[nH]c2ccccc12)C(=O)N[C@H](CC(N)=O)C(=O)N[C@@H](CC(=O)O)C(=O)N[C@@H]1C(=O)NCC(=O)N[C@@H](CCCN)C(=O)N[C@@H](CC(=O)O)C(=O)N[C@H](C)C(=O)N[C@@H](CC(=O)O)C(=O)NCC(=O)N[C@H](CO)C(=O)N[C@@H]([C@H](C)CC(=O)O)C(=O)N[C@@H](CC(=O)c2ccccc2N)C(=O)O[C@@H]1C [Daptomycin]
[6]; microdilution, 40 MRSA strains
  MIC Range: 0.5-1^ μg/ml

## CC(=O)O[C@H]1C[C@@]2(C)[C@@H](C[C@@H](O)[C@H]3[C@@]4(C)CC[C@@H](O)[C@@H](C)[C@@H]4CC[C@@]32C)/C1=C(\CCC=C(C)C)C(=O)O [FA, Fusidic Acid]
[7]
  protein binding: 95-97%

## CC(=O)NC[C@H]1CN(c2ccc(N3CCOCC3)c(F)c2)C(=O)O1 [Linezolid]
[6]; all MRSA strains tested
  MICs (range): 1-4
[6]; microdilution, 40 MRSA strains
  MIC Range: 1 to 4 µg/mL

## CN(C)c1cc(NC(=O)CNC(C)(C)C)c(O)c2c1C[C@H]1C[C@H]3[C@H](N(C)C)C(O)=C(C(N)=O)C(=O)[C@@]3(O)C(O)=C1C2=O [Tigecycline]
[6]; microdilution, 40 MRSA strains
  MIC Range: 0.12 to 0.25 µg/mL

## NC[C@H]1O[C@H](O[C@H]2[C@H](O)[C@@H](O[C@H]3O[C@H](CO)[C@@H](O)[C@H](N)[C@H]3O)[C@H](N)C[C@@H]2N)[C@H](N)C[C@@H]1O [Tobramycin, reference compound]
[3]; strain MRSA 2232
  MIC (reason strain not tested in combination): > 512 µg/mL
[1]
  MIC Range: 0.25 to 1.0 µg/mL

## CN[C@H](CC(C)C)C(=O)N[C@H]1C(=O)N[C@@H](CC(N)=O)C(=O)N[C@H]2C(=O)N[C@H]3C(=O)N[C@H](C(=O)N[C@H](C(=O)O)c4cc(O)cc(O)c4-c4cc3ccc4O)[C@H](O)c3ccc(c(Cl)c3)Oc3cc2cc(c3O[C@@H]2O[C@H](CO)[C@@H](O)[C@H](O)[C@H]2O[C@H]2C[C@](C)(N)[C@H](O)[C@H](C)O2)Oc2ccc(cc2Cl)[C@H]1O [Vancomycin]
[6]; microdilution, 40 MRSA strains
  MIC Range: 0.5-1^ μg/ml

## Teicoplanin
[6]; microdilution, 40 MRSA strains
  MIC Range: 0.25 to 1 µg/mL

Source: patent publication US20130164351A1 (priority 2010, published 2013)
